The source of these data is PMC10454728, “A Comparative Study on the Lysosomal Cation Channel TMEM175 Using Automated Whole-Cell Patch-Clamp, Lysosomal Patch-Clamp, and Solid Supported Membrane-Based Electrophysiology: Functional Characterization and High-Throughput Screening Assay Development” (International Journal of Molecular Sciences, 2023).

This test has as its target T1, TMEM175 (Homo sapiens, UniProt Q9BSA9).
T1 sequence (Q9BSA9 1-504): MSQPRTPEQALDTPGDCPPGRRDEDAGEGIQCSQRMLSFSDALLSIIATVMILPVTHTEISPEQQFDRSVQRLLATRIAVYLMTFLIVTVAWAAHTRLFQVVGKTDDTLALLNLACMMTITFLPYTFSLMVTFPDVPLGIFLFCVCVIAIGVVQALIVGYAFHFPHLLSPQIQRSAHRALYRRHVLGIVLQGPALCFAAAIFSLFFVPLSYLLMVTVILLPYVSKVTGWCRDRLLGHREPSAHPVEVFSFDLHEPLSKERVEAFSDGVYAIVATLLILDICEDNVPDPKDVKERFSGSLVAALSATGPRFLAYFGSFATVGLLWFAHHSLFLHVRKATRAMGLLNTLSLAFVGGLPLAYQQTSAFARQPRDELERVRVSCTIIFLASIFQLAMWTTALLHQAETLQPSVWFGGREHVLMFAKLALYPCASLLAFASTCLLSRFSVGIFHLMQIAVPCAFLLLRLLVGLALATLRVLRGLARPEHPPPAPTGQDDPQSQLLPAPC
Kind of test: Manual lysosomal patch-clamp (LPC) on vacuolin-1 enlarged lysosomes. It is filed as biochemical. As to the method: Since both technologies apply different assay conditions and samples, the origin of the discrepancies may not be concluded. To investigate potential systematic variations among different assay technologies, namely, whole-cell APC, SSME on purified lysosomes, and manual LPC, we conducted a comparative analysis of the potency and maximum potentiation of a set of eight blinded compounds and SC-79 (Figure 8, Table 4). SSME recordings were performed using the same procedures as described for the tool compounds above. However, adjustments were made to the voltage application protocol in APC, as outlined in the Methods section. Lysosomal patch-clamp was performed using a manual setup. In contrast to APC and SSME recordings, the recorded current in LPC represents H^+ efflux from lysosomes in the presence of a physiological pH gradient (details are provided in the Methods section).
Experiments were carried out in whole-lysosome configuration in voltage-clamp mode, using a modified patch-clamp method, as described by Chen et al..
Briefly, cells were treated overnight with 5 µM vacuolin-1 to increase the size of the lysosomes. Mechanical isolation was performed using a patch pipette pressed against a selected cell, and quickly pulled away to slice the cell membrane to release the enlarged lysosomes into the dish. After the dissection of the lysosomes, the glass electrode was exchanged for a recording electrode. After the formation of a giga-seal and compensation of capacitance transients, voltage steps of several hundred millivolts with millisecond duration were applied to break into the vacuolar membrane.
The bath solution representing the cytosol contained 10 mM HEPES (pH 7.2), 145 mM K-methanesulfonate and 5 mM KCl. The pipette solution representing the lysosomal lumen contained 10 mM MES (pH 5.5), 145 mM Cs-methanesulfonate, 5 mM KCl, and 10 mM EGTA.
After the reappearance of capacitance transients to verify the whole-lysosome configuration, the TMEM175 currents were recorded using a ramp protocol from −100 to +100 mV with 1 s of duration, digitized at 20 kHz. The ramp protocol was repeated in 4 s intervals, keeping the lysosomes at 0 mV in between. We used the outward current at +100 mV as a read-out, essentially observing the flux of H^+ and Cs^+ from the lysosome into the cytosol. […]
Before averaging across datasets obtained from N = 3 lysosomes, we normalized the currents to the control current. Datasets containing 6 or 9 compound concentrations were recorded in two or three sets of experiments with 3 compound concentrations per lysosome. All experiments were conducted at room temperature, and recordings were analyzed with pClamp 10.7 and GraphPad Prism 8.
Background: In patch-clamp work, channel activity is measured electrically.

The EC50 is the midpoint of the concentration-response curve. Take `CCOC(=O)C1=C(N)Oc2ccc(Cl)cc2C1C(C#N)C(=O)OCC` (stereo not shown) [SC-79]: for the setting “Table 4 fit, currents normalized to current before compound”, the “Imax − Imin (nA), LPC” value stood at 0.91 ± 0.52 nA. Besides, the “n (Hill coefficient), LPC” value (fixed to 1 in the fit) is 1. The “Potentiation, LPC” value (from dose-response fit, Figure 8) is given as 91 ± 52%. For the same molecule, where the note is “outward current at +100 mV, pipette pH 5.5 / bath pH 7.2”, the 50% effective concentration (EC50) was 21 ± 32 µM.
